Measured values published in patent US20150030544A1, “Enzymatic Nanosensor Compositions and Methods” (Northeastern University, priority 2012, published 2015).

Conditions: mice, 75 mg/kg i.p., averaged data of three experiments, model fit
Description: Enzyme nanosensor solutions were prepared using concentrated O2NS nanosensors (25 μL, ˜10^13 particles) and DAO (50 μL, 1.75IU). As a control, O2NS injections were made with concentrated nanosensors (25 μL) diluted with 50 μL of PBS. […] Mice were weighed, anesthetized with isoflurane (2% isoflurane, 98% oxygen), and placed in the IVIS imager. Two intradermal 30 μL injections of nanosensors were made along the midline of the back. Enzyme nanosensor was injected posterior to O2NS. After injection the animals are imaged every 30 seconds for 30 minutes. […] The mice were imaged for an additional 45 minutes to 1 hour. All animals were sacrificed after the end of the experiment. Three separate experiments were performed with new mice and fresh batches of nanosensor solution.
For data analysis, a region of interest encompassing the injection area was selected and intensity was recorded. […] The difference in normalized signals between the enzymatic nanosensors and O2NS was calculated for each mouse. […] The average data was then fit to a single compartment open model: Equation (1)
Where I is the normalized fluorescent intensity difference, A is a scaling parameter, ka and ke are the absorption and elimination rate constants and tlag is the lag time. The parameters ka, ke, and tlag were fit using the method of residuals and A was fit using least squares minimization for plotting purposes.

A lag time of 4.8 min was found for Cl.Cl.NCCc1c[nH]cn1 [histamine, histamine dihydrochloride] in this work.
